Patent publication US20240423977A1, “FIVE-MEMBERED RING-FUSED SIX-MEMBERED RING COMPOUND, PREPARATION METHOD THEREFOR, AND PHARMACEUTICAL COMPOSITION AND USE THEREOF” (HANGZHOU POLYMED BIOPHARMACEUTICALS, INC., priority 2022, published 2024)
pIC50: −log10 of the molar value.

Key:
[1] = target: IRAK4 protein in THP-1 cells (Homo sapiens (Human), UniProt Q9NWZ3); assay: PROTAC-induced IRAK4 protein degradation in THP-1 cells (Western Blot); format: cell-based; settings: for IRAK4 degradation rate 24 hours after administration of the compounds with a concentration of 1 μM: Western blotting; for DC50: concentration that degraded 50% of IRAK4, Western blotting, 24 hours after administration
IRAK4 protein in THP-1 cells, sequence (Q9NWZ3 whole entry): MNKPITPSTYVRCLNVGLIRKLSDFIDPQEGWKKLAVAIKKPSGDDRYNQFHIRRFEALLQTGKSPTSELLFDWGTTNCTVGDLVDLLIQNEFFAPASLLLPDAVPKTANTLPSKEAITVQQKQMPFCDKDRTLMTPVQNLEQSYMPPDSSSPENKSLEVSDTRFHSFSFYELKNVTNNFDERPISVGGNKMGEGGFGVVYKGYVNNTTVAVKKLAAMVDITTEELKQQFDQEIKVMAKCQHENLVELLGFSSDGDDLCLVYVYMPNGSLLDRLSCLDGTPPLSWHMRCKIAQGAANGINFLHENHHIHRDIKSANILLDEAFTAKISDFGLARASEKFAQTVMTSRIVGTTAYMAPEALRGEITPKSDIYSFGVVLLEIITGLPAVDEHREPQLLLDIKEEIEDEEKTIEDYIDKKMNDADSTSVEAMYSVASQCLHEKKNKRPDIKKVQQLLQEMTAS
Description: 2.1 Based on the experimental method of Western Blot, specific antibodies were used to stain the THP-1 cell samples treated by gel electrophoresis, and the degrading activity of the compounds on the IRAK4 protein in THP-1 cells was determined by analyzing the position and depth of staining. The concentrations of compound for the detection included 0 μM, 0.3 μM, 1 μM and 3 μM, and the cells were treated by the compound for 8 hours, 16 hours, 24 hours, and 48 hours. Glyceraldehyde-3-phosphate dehydrogenase (GAPDH) is an internal reference protein in this experiment.
Electrophoresis buffer: 50 mL MOPS SDS Running Buffer (20×) and 50 mL 20×TBS Tween-20 buffer were diluted with deionized water to 1 L as the electrophoresis buffer;
5% skim milk (w/v): 2.5 g skim milk was diluted with 50 mL 1×TBS Tween-20 buffer to prepare 5% skim milk;
5% BSA (w/v): 2.5 g BSA was diluted with 50 mL 1×TBS Tween-20 buffer to prepare 5% BSA;
Anti-IRAK4 antibody was diluted with 5% BSA at 1:1000 into a primary antibody working solution;
Goat Anti-Rabbit IgG H&L (HRP) was diluted with 5% BSA at 1:2000 into a second antibody working solution; and
Goat Anti-Mouse IgG H&L (HRP) was diluted with 5% BSA at 1:2000 into a second antibody working solution.
THP-1 cells were plated in a 6-well plate at a density of 1.5×10^6 cells per ml and incubated for 2 hours in a cell culture incubator under 37° C. and 5% CO2. The compound was diluted with DMSO to 0.6 mM, 0.2 mM and 0.06 mM respectively. 10 μL of compound solution was added to the corresponding wells, and continued to incubate in the incubator for 16 hours, 24 hours and 48 hours respectively. The compound-treated THP-1 cells in the well were collected, added with 120 μL of RIPA lysate containing protease inhibitor, Phosphatase Inhibitor Cocktail 2 and Phosphatase Inhibitor Cocktail 3, lysed on wet ice for 30 minutes, and then the cells lysate was centrifuged at a high speed and a low temperature for 5 minutes to collect the supernatant. The protein concentration of the cell sample was determined according to the instructions in the Pierce™ BCA Protein Assay Kit.
The concentration of the sample was adjusted to be consistent using lysis buffer and NuPAGE® LDS sample buffer containing 1M DTT. The samples were heated at 95° C. for 5 minutes and centrifuged at a low temperature and at a high speed. 20 μL of the prepared protein sample and 4 μL of PageRuler Prestained Protein Ladder were added into the gel well for running at 80V voltage for 0.5 hours, then the voltage was adjusted to 120V for further running for 1.5 hours. The gel was removed and the proteins in the gel were transferred to the IBlotTM 2 transfer membrane set at 20V. After successful transfer, bands at 65 kDa-40 kDa and 40 kDa-30 kDa were cut respectively. The membranes were blocked with 5% skim milk for 1 hour at room temperature. The membranes were washed three times with 1× concentration of TBST, then incubated with IRAK4 antibody working solution overnight at 4° C. The IRAK4 antibody working solution was discarded, and the membranes were washed three times with 1×concentration of TBST, and incubated with Goat Anti-Rabbit IgG H&L (HRP) working solution and Goat Anti-Mouse IgG H&L (HRP) working solution at room temperature. After 1 hour of incubation, the antibody working solution was discarded and the membranes were washed three times with 1× concentration of TBST. According to the instructions of the kit SuperSignal™ West Femto Maximum Sensitivity Substrate, the reagents in the kit were mixed in equal volume proportions to prepare a luminescent liquid mixture. The membranes were incubated for 1 minute, then removed for exposure.
The results of Western blotting 24 hours after administration of the compounds with a concentration of 1 μM were shown in Table 3: […]

kinase IRAK4 = kinase IRAK4 (Homo sapiens (Human), UniProt Q9NWZ3); assay: Inhibitory effects of compounds on kinase activity (fluorescence microfluidic mobility detection, competitive with ATP); format: biochemical; settings: IRAK4 6 nM, ATP 10 μM
kinase IRAK4, sequence (Q9NWZ3 whole entry): as above
Description: Based on an experimental method of fluorescence microfluidic mobility detection, an IC50 value of competitive binding of kinase IRAK4 to ATP by the compounds was determined. The initial detection concentration of the compounds was 10 μM, diluted 4-fold gradient down to […], and tested in duplicate. Among them, commercial staurosporine was the standard control substance in this experiment.
1) IRAK4 kinase was dissolved in kinase buffer (50 mM HEPES pH 7.5, 10 mM MgCl2, 2 mM DTT and 0.01% Brij-35) to a final concentration of 6 nM.
2) The substrate peptide FAM-P8 and ATP were dissolved in the above kinase buffer. The final concentrations of the IRAK4 substrate peptide FAM-P8 and ATP were 3 μM and 10 μM respectively.
3) Dilution of the compounds: the compound was first diluted to 50 μM, and then diluted down with a 4-fold gradient of DMSO. The solution without the compound and kinase is used as a blank control, corresponding to the “minimum value” shown below; and the solution without the compound but with kinase, adenosine 5′-triphosphate disodium salt hydrate, DMSO and buffer is used as a positive control, corresponding to the “maximum value” shown below. 4) Kinase reaction and termination: 10 μL of kinase buffer was added to a 384-well plate containing 5 μL of the compound to be tested, and incubated at room temperature for 10 minutes. Another 10 μL of buffer containing the substrate peptide and adenosine 5′-triphosphate disodium salt hydrate was added to the 384-well plate. After incubation at 28° C. for one hour, 25 μL stop solution (100 mM HEPES pH 7.5, 50 mM EDTA, 0.2% Coating Reagent #3 and 0.015% Brij-35) was added to each well to terminate the reaction.
5) Data reading: the CaliperEZ Reader II instrument was used to read the conversion rate data. Conditions: downstream voltage −500V, upstream voltage −2250V, base pressure −0.5 PSI, and screening pressure −1.2 PSI.
6) Data calculation: the conversion rate data was copied from CaliperEZ Reader II and converted into inhibition rate data. The calculation formula is as follows:
[formula] • IC50 values were fitted using XLFit excel add-in version 5.4.0.8,
Y=Bottom+(Top−Bottom)/(1+(IC50/X)^HillSlope) Fitting formula: […]

Row | IRAK4 degradation rate 24 hours after administration of the compounds with a concentration of 1 μM [1] | DC50 [1] | pIC50 (kinase IRAK4; Table 1, class symbols) | pIC50 (kinase IRAK4; Table 2, substrate FAM-P8 3 μM) | SMILES
1 | 75~100% | 4.41 nM | > 7.00 | 7.96 | COc1cc2nn(C3CC4(CCN(CC(=O)N5CCN(c6ccc7c(c6)C(=O)N(C6CCC(=O)NC6=O)C7=O)CC5)CC4)C3)cc2cc1NC(=O)c1cccc(C(F)(F)F)n1 (stereo not shown) [Compound I-2]
2 | 75~100% | 3.64 nM | > 7.00 | 7.80 | COc1cc2nn(C3CC4(CCN(C(=O)[C@H]5CC[C@H](CNc6ccc7c(c6)C(=O)N(C6CCC(=O)NC6=O)C7=O)CC5)CC4)C3)cc2cc1NC(=O)c1cccc(C(F)(F)F)n1 (stereo partly shown) [Compound I-3]
3 |  | 2.06 nM | > 7.00 | 7.44 | COc1cc2nn(C3CC4(CCN(C(=O)[C@H]5CC[C@H](Nc6ccc7c(c6)C(=O)N(C6CCC(=O)NC6=O)C7=O)CC5)CC4)C3)cc2cc1NC(=O)c1cccc(C(F)(F)F)n1 (stereo partly shown) [Compound I-4]
4 |  | 3.6 nM |  | 7.95 | CC(C)(O)c1cc2nn(C3CC4(CCN(C(=O)C5CCN(c6ccc7c(c6)C(=O)N(C6CCC(=O)NC6=O)C7=O)CC5)CC4)C3)cc2cc1NC(=O)c1cccc(C(F)(F)F)n1 (stereo not shown) [Compound I-5]
5 |  | 3.6 nM |  | 8.09 | COc1cc2nn(C3CC4(CCN(C(=O)C5CCN(c6ccc7c(c6)CN(C6CCC(=O)NC6=O)C7=O)CC5)CC4)C3)cc2cc1NC(=O)c1cccc(C(F)(F)F)n1 (stereo not shown) [Compound I-7]
6 |  | 8.2 nM | > 7.00 | 7.59 | COc1cc2nn(C3CC4(CCN(C(=O)C5CCN(c6cc7c(cc6F)C(=O)N(C6CCC(=O)NC6=O)C7=O)CC5)CC4)C3)cc2cc1NC(=O)c1cccc(C(F)(F)F)n1 (stereo not shown) [Compound I-8]
7 |  | 12 nM |  | 7.48 | O=C1CCC(N2C(=O)c3ccc(N4CCC(C(=O)N5CCC6(CC5)CC(n5cc7cc(NC(=O)c8cccc(C(F)(F)F)n8)c(N8CCOCC8)cc7n5)C6)CC4)cc3C2=O)C(=O)N1 (stereo not shown) [Compound I-9]
8 |  | 5.07 nM |  | 7.62 | O=C1CCC(N2C(=O)c3ccc(N4CCC(C(=O)N5CCC6(CC5)CC(n5cc7cc(NC(=O)c8cccc(C(F)(F)F)n8)c(N8CC[C@@H](O)C8)cc7n5)C6)CC4)cc3C2=O)C(=O)N1 (stereo partly shown) [Compound I-10]
9 |  | 1.08 nM |  | 7.24 | CC(O)(c1cc2nn(C3CC4(CCN(C(=O)C5CCN(c6ccc7c(c6)C(=O)N(C6CCC(=O)NC6=O)C7=O)CC5)CC4)C3)cc2cc1NC(=O)c1cccc(C(F)(F)F)n1)C(F)(F)F (stereo not shown) [Compound I-12F]
10 |  | 15.8 nM | > 7.00 | 8.32 | COc1cc2nn(C3CC4(CCN(CC5CCN(c6ccc7c(c6)C(=O)N(C6CCC(=O)NC6=O)C7=O)CC5)CC4)C3)cc2cc1NC(=O)c1cccc(C(F)(F)F)n1 (stereo not shown) [Compound I-13]
11 |  | 12.6 nM |  | 7.78 | COc1cc2nn(C3CC4(C3)CN(C(=O)C3CCN(c5ccc6c(c5)C(=O)N(C5CCC(=O)NC5=O)C6=O)CC3)C4)cc2cc1NC(=O)c1cccc(C(F)(F)F)n1 (stereo not shown) [Compound I-14]
12 |  | 9.9 nM |  | 7.94 | COc1cc2nn(C3CC4(CCC(NC5CCN(c6ccc7c(c6)C(=O)N(C6CCC(=O)NC6=O)C7=O)CC5)CC4)C3)cc2cc1NC(=O)c1cccc(C(F)(F)F)n1 (stereo not shown) [Compound I-16]
13 |  | 25.9 nM |  | 7.51 | COc1cc2nn(C3CC4(CCN(C(=O)C5CC6(C5)CN(c5ccc7c(c5)C(=O)N(C5CCC(=O)NC5=O)C7=O)C6)CC4)C3)cc2cc1NC(=O)c1cccc(C(F)(F)F)n1 (stereo not shown) [Compound I-17]
14 |  | 1.78 nM |  | 8.09 | COc1cc2nn(C3CCC4(CC3)CN(C(=O)C3CCN(c5ccc6c(c5)C(=O)N(C5CCC(=O)NC5=O)C6=O)CC3)C4)cc2cc1NC(=O)c1cccc(C(F)(F)F)n1 (stereo not shown) [Compound I-19]
15 |  | 11.2 nM |  | 7.63 | COc1cc2nn(C3CC4(CCC(C(=O)N5CCN(c6ccc7c(c6)C(=O)N(C6CCC(=O)NC6=O)C7=O)CC5)CC4)C3)cc2cc1NC(=O)c1cccc(C(F)(F)F)n1 (stereo not shown) [Compound I-20]
16 |  | 15.3 nM |  | 7.76 | COc1cc2nn(C3CC4(CCN(C5CC6(CCN(c7ccc8c(c7)C(=O)N(C7CCC(=O)NC7=O)C8=O)CC6)C5)CC4)C3)cc2cc1NC(=O)c1cccc(C(F)(F)F)n1 (stereo not shown) [Compound I-24]
17 |  | > 1000 nM |  | 7.69 | COc1cc2nn(C3CC4(CCN(C(=O)C5CCN(c6cccc7c6C(=O)N(C6CCC(=O)NC6=O)C7=O)CC5)CC4)C3)cc2cc1NC(=O)c1cccc(C(F)(F)F)n1 (stereo not shown) [Compound I-25]
18 |  | 44.6 nM |  | 7.52 | COc1cc2nn(C3CC4(CCN(C(=O)C5CCC6(CC5)CN(c5ccc7c(c5)C(=O)N(C5CCC(=O)NC5=O)C7=O)C6)CC4)C3)cc2cc1NC(=O)c1cccc(C(F)(F)F)n1 (stereo not shown) [Compound I-26]
19 |  | 6.9 nM |  | 7.38 | COc1cc2nn(C3CCC4(CC3)CCN(C(=O)C3CCN(c5ccc6c(c5)C(=O)N(C5CCC(=O)NC5=O)C6=O)CC3)CC4)cc2cc1NC(=O)c1cccc(C(F)(F)F)n1 (stereo not shown) [Compound I-27]
20 |  | 8.3 nM |  | 7.90 | COc1cc2nn([C@H]3C[C@@H]4CN(C(=O)C5CCN(c6ccc7c(c6)C(=O)N(C6CCC(=O)NC6=O)C7=O)CC5)C[C@@H]4C3)cc2cc1NC(=O)c1cccc(C(F)(F)F)n1 (stereo partly shown) [Compound I-28]
21 |  | 16.3 nM |  | 7.13 | COc1cc2nn(C3CC4(CCN(C(=O)[C@H]5CC[C@H](C(=O)N[C@H](C(=O)N6C[C@H](O)C[C@H]6C(=O)N[C@@H](C)c6ccc(-c7scnc7C)cc6)C(C)(C)C)CC5)CC4)C3)cc2cc1NC(=O)c1cccc(C(F)(F)F)n1 [Compound I-29]
22 |  | 47.3 nM |  | 7.47 | COc1cc2nn(C3CC4(CCN(C(=O)[C@H]5CC[C@H](Oc6ccc7c(c6)C(=O)N(C6CCC(=O)NC6=O)C7=O)CC5)CC4)C3)cc2cc1NC(=O)c1cccc(C(F)(F)F)n1 (stereo partly shown) [Compound I-31]
23 |  |  |  | 5.71 | COc1cc2c(cnn2C2CC3(CCC(C(=O)N4CCN(c5ccc6c(c5)C(=O)N(C5CCC(=O)NC5=O)C6=O)CC4)CC3)C2)cc1NC(=O)c1cccc(C(F)(F)F)n1 (stereo not shown) [Compound I-56]
